{
  "source": "patent US11701368B2",
  "about": "(EYE CO PTY LTD, priority 2018, dated 2023)",
  "key": {"[1]": {"experiment": "physchem", "excerpt": "FIG. 1: Solubility enhancement for MR compounds and TA in saline with addition of hydroxy propyl β-cyclodextrin (data are mean±sd, n=3). Top: FLU and TA; Bottom: 11-DC; DCS and DCSA."}, "[2]": {"experiment": "Stability of drug aqueous solutions under autoclave conditions", "format": "physicochemical", "settings": "saturated solution, 121° C./30 min", "excerpt": "Preferably, the study materials are sterile, at least to a large degree for preclinical studies. In the absence of a facility for complete aseptic manufacture, in order to sterilize the suspensions there are two possible approaches foreseen—autoclaving the final suspensions in ‘vial’, or gamma sterilization."}, "[3]": {"target": "T1, glucocorticoid receptor (Homo sapiens, UniProt P04150)", "T1 sequence (P04150 1-777)": "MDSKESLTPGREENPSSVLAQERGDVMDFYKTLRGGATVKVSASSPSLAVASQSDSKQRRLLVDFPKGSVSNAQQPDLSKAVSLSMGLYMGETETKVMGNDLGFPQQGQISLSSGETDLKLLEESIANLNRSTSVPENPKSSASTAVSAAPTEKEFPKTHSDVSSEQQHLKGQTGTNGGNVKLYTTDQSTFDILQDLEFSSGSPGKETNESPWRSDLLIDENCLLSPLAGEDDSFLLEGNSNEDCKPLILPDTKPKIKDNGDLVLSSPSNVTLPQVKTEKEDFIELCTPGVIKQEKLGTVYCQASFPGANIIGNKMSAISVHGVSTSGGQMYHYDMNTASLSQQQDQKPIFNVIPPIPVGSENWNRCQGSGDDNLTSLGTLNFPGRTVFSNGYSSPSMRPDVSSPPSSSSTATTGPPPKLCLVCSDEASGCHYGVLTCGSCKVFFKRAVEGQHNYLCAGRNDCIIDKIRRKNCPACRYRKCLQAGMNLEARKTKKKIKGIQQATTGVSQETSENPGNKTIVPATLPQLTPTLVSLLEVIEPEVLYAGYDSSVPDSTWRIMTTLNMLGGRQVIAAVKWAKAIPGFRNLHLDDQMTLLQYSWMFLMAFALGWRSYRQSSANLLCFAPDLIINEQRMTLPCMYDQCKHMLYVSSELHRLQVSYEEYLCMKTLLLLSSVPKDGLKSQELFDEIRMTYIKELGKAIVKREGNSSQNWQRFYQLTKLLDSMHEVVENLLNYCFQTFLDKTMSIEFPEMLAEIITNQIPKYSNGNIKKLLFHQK", "experiment": "Glucocorticoid receptor activity (GR potency) of corticosterones", "settings": "relative potency, hydrocortisone (cortisol) = 1"}, "[4]": {"experiment": "Drug storage stability in saline (accelerated stability trial)", "settings": "saturated solution in saline, 60° C.", "excerpt": "Consequently it was felt to be important to characterise the drug stability over time in aqueous solution as an indicator of likely issues with drug content and/or degradation products in the suspensions on storage."}, "[5]": {"system": "New Zealand albino rabbit eyes", "settings": "cited from earlier work"}, "[6]": {"target": "T2, mineralocorticoid receptor (Homo sapiens, UniProt P08235)", "T2 sequence (P08235 1-984)": "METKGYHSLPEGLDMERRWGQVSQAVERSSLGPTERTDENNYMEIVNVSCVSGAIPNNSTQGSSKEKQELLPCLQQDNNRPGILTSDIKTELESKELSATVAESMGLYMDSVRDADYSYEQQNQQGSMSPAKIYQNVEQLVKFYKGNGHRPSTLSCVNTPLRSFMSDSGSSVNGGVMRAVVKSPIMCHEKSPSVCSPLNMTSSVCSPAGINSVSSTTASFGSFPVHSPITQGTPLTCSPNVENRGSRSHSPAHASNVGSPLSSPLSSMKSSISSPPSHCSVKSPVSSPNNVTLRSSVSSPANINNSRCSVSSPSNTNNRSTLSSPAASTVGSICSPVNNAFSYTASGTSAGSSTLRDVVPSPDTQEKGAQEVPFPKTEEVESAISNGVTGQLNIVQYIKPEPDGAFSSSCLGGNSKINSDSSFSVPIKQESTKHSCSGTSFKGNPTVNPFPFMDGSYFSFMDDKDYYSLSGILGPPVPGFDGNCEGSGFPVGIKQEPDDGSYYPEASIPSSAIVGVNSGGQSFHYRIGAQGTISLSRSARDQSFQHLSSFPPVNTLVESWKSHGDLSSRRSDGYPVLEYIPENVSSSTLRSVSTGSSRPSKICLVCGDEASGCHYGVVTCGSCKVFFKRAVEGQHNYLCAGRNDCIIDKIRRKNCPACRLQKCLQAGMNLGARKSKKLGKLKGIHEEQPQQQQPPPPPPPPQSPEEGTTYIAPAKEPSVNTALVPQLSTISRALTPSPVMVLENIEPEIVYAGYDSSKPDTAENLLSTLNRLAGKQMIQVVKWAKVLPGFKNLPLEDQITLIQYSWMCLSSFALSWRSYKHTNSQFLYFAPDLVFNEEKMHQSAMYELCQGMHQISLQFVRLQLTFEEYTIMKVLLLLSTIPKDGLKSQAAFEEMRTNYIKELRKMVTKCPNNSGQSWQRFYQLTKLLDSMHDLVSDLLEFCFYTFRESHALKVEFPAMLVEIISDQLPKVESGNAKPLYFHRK", "experiment": "Mineralocorticoid receptor activity (MR potency) of corticosterones", "settings": "relative potency, hydrocortisone (cortisol) = 1"}, "[7]": {"experiment": "Duration of action (t1/2)", "settings": "in vivo; read-out: Duration of action (t1/2 in hours) (converted)"}, "[8]": {"experiment": "Particle sizing by laser light scattering", "format": "physicochemical", "settings": "as received powder"}, "[9]": {"experiment": "Batch production: Av drug content per vial (RGA40/1)", "format": "physicochemical", "settings": "batch after freeze drying and gamma sterilization; specification 20.0 ± 2.0 mg"}, "[10]": {"experiment": "Batch production: particle size (RGA40/2)", "format": "physicochemical"}, "[11]": {"experiment": "Batch production: pH (RGA40/3)", "format": "physicochemical", "settings": "specification 6.0-8.0"}},
  "data": [
    {"smiles": "CC1(C)O[C@@H]2C[C@H]3[C@@H]4CCC5=CC(=O)C=C[C@]5(C)[C@@]4(F)[C@@H](O)C[C@]3(C)[C@]2(C(=O)CO)O1", "note": "[TA, triamcinolone acetonide]", "values": [
      {"measurement": "absolute solubility (compared with FLU)", "setting": "[1]", "result": "lower overall"},
      {"measurement": "aqueous solubility relative to the other compounds", "setting": "[1]", "result": "very low"},
      {"measurement": "stability of aqueous solution to autoclave conditions", "setting": "[2]", "result": "moderately stable"}
    ]},
    {"smiles": "C[C@H]1C[C@H]2[C@@H]3CCC4=CC(=O)C=C[C@]4(C)[C@@]3(Cl)[C@@H](O)C[C@]2(C)[C@@]1(O)C(=O)CO", "note": "[Beclometasone]", "values": [
      {"measurement": "GR potency", "setting": "[3]", "result": "8 puffs 4 times a day;"}
    ]},
    {"smiles": "C[C@]12CCC(=O)C=C1CC[C@H]1[C@@H]3CC[C@](O)(C(=O)CO)[C@@]3(C)C[C@H](O)[C@@]12F", "note": "[FLU, fludrocortisone]", "values": [
      {"measurement": "drug concentration remaining, % of original concentration", "setting": "[4]; after two weeks", "result": 20, "unit": "%"},
      {"measurement": "stability in saline over time", "setting": "[4]; up to 14 days", "result": "marked instability"},
      {"measurement": "stability of aqueous solution to autoclave conditions", "setting": "[2]", "result": "partly degraded"},
      {"measurement": "ERG in the other groups / other eyes", "setting": "[5]; intravitreal 400 μg, 1 mg, 2 mg/0.1 ml and remaining eyes, two weeks after injection", "result": "no significant decrease in ERG"},
      {"measurement": "eyes with decreases in ERG", "setting": "[5]; intravitreal 4 mg/0.1 ml, two weeks after injection", "result": "One"},
      {"measurement": "eyes with vitreous hemorrhage", "setting": "[5]; intravitreal 4 mg/0.1 ml", "result": "one"},
      {"measurement": "signs of retinal toxicity on slit-lamp examination, indirect ophthalmoscopy or light microscopy", "setting": "[5]; rabbit, in vivo", "result": "no signs of retinal toxicity"}
    ]},
    {"smiles": "C[C@]12CCC(=O)C=C1CC[C@@H]1[C@@H]2C(=O)C[C@@]2(C)[C@H]1CC[C@]2(O)C(=O)CO", "note": "[Cortisone]", "values": [
      {"measurement": "GR potency", "setting": "[3]", "result": 0.8},
      {"measurement": "MR potency", "setting": "[6]", "result": 0.8}
    ]},
    {"smiles": "C[C@]12CCC(=O)C=C1CC[C@@H]1[C@@H]2[C@@H](O)C[C@@]2(C)[C@H]1CC[C@]2(O)C(=O)CO", "note": "[Hydrocortisone (cortisol), Hydrocortisone]", "values": [
      {"measurement": "GR potency", "setting": "[3]", "result": 1},
      {"measurement": "MR potency", "setting": "[6]", "result": 1},
      {"measurement": "half-life", "setting": "[7]", "result": 8, "unit": "h"}
    ]},
    {"smiles": "C[C@]12C=CC(=O)C=C1CC[C@@H]1[C@@H]2[C@@H](O)C[C@@]2(C)[C@H]1CC[C@]2(O)C(=O)CO", "note": "[Prednisolone]", "values": [
      {"measurement": "GR potency", "setting": "[3]", "result": 4},
      {"measurement": "MR potency", "setting": "[6]", "result": 0.8},
      {"measurement": "half-life", "setting": "[7]", "result": "16 to 36", "unit": "h"}
    ]},
    {"smiles": "C[C@]12C=CC(=O)C=C1CC[C@H]1[C@@H]3C[C@@H](O)[C@](O)(C(=O)CO)[C@@]3(C)C[C@H](O)[C@@]12F", "note": "[Triamcinolone]", "values": [
      {"measurement": "GR potency", "setting": "[3]", "result": 5},
      {"measurement": "MR potency", "setting": "[6]", "result": 0},
      {"measurement": "half-life", "setting": "[7]", "result": "12 to 36", "unit": "h"}
    ]},
    {"smiles": "C[C@]12CCC(=O)C=C1CC[C@@H]1[C@@H]2[C@@H](O)C[C@]2(C=O)[C@@H](C(=O)CO)CC[C@@H]12", "note": "[Aldosterone]", "values": [
      {"measurement": "GR potency", "setting": "[3]", "result": 0.3},
      {"measurement": "MR potency", "setting": "[6]", "result": "200-1000"}
    ]},
    {"smiles": "C[C@H]1C[C@@H]2[C@H]([C@@H](O)C[C@@]3(C)[C@H]2CC[C@]3(O)C(=O)CO)[C@@]2(C)C=CC(=O)C=C12", "note": "[Methylprednisolone]", "values": [
      {"measurement": "half-life", "setting": "[7]", "result": "18 to 40", "unit": "h"}
    ]},
    {"smiles": "C[C@]12CC[C@H]3[C@@H](CCC4=CC(=O)CC[C@@]43C)[C@@H]1CC[C@@H]2C(=O)CO", "note": "[DCS, Deoxycorticosterone]", "values": [
      {"measurement": "solubility relative to 11-DC and DCSA", "setting": "[1]", "result": "4-8 fold"},
      {"measurement": "concentration in solution", "setting": "[1]; saline with 50 mM HP-βCD", "result": "> 8000", "unit": "µg/mL"},
      {"measurement": "stability of aqueous solution to autoclave conditions", "setting": "[2]", "result": "stable"},
      {"measurement": "D(v, 0.5)", "setting": "[8]", "result": 22, "unit": "microns"},
      {"measurement": "D(v, 0.9)", "setting": "[8]", "result": 80, "unit": "microns"},
      {"measurement": "Av Drug Content per vial", "setting": "[9]", "result": "Av Drug RGA40/1 20.0 ± 2.0 mg 18.5 ± 0.7 1 Nov. 2006 Passed"},
      {"measurement": "Particle Size D(0.5)", "setting": "[10]; specification <20", "result": "Particle RGA40/2 D(0.5) = <20 12.7 3 Nov. 2006 Passed"},
      {"measurement": "Particle Size D(0.9)", "setting": "[10]; specification <30", "result": "Size D(0.9) = <30 30.0"},
      {"measurement": "pH", "setting": "[11]", "result": "pH RGA40/3 6.0-8.0 7.0 3 Nov. 2006 Passed"}
    ]},
    {"smiles": "C[C@]12C=CC(=O)C=C1CC[C@@H]1[C@@H]2C(=O)C[C@@]2(C)[C@H]1CC[C@]2(O)C(=O)CO", "note": "[Prednisone]", "values": [
      {"measurement": "MR potency", "setting": "[6]", "result": 0.8},
      {"measurement": "half-life", "setting": "[7]", "result": "16 to 36", "unit": "h"}
    ]}
  ]
}
